Measurements from patent US20100075435A1, “BIOTINYLATED THYROXINE” (priority 2008, published 2010).

Tested on: T4-streptavidin (Biotin-PEG4-T4 streptavidin conjugate) immobilized flow cell Fc3
Assay: SPR bivalent kinetic analysis of antibodies on T4-streptavidin immobilized flow cell (Biocore 3000, CM5 chip)
Format: binding
Conditions: comparison of antibodies 1 and 2
Procedure: The biotinylated thyroxine obtained in Example 1 (PEG n=4) (Biotin-PEG4-T4) (1.2 mg) was dissolved in 189.8 microliters of DMSO.
A 98 microliter quantity of 1 mg/mL of streptavidin and 1.33 microliters of the DMSO solution (5 mM) of Biotin-PEG4-T4 obtained above were dissolved in 0.67 microliters of HBSN. Here, the streptavidin:biotin ratio was 1:4 (mole ratio).
A Biocore 3000 (Biocore) was employed as the surface plasmon resonance (SPR) device. CM5 sensor chips were employed, and four flow cells (Fc 1 to 4) were prepared according to the following procedure. The flow rate was 10 microliters/min.
A flow of a 70 microliter quantity of a mixed solution of equal quantities of EDC (1-ethyl-3-(3-dimethylaminopropyl)carbodiimide) and NHS (N-hydroxysuccinimide) was run (7 minutes), after which a flow of a 70 microliter quantity of a solution of streptavidin in […] (0.2 mg/mL, pH 5.0) was run (7 minutes). Subsequently, a flow of ethanolamine was similarly run.
A flow of a 70 microliter quantity of mixed solution of equal quantities of EDC and NHS was run (7 minutes), after which a flow of a 70 microliter solution of T4-streptavidin in […] (0.2 mg/mL, pH 5.0) was run (7 minutes). […]
It was necessary to conduct interaction analysis at the minimum level of immobilization within the range over which the S/N ratio could be calculated. […]

Structure (SMILES): COC(=O)C(Cc1cc(I)c(Oc2cc(I)c(O)c(I)c2)c(I)c1)NC(=O)CCOCCOCCOCCOCCNC(=O)CCCCC1SCC2NC(=O)NC21 (stereo not shown) [Example 1, Biotinylated Thyroxine (PEG n=4)]
- binding rates: about the same binding rates
